Assay [1] addresses T1, HRAS^G12V-GTP / scFv RASdm interaction (Homo sapiens, UniProt P01112, G12V).
T1 construct: made in house; host or cells: E. coli C41(DE3)
The assay is described as follows: AlphaScreen of interaction between GST-HRAS^G12V-GTPγS and His-tagged scFv RASdm. The assay is classed as biochemical. Conditions: dose-response Alpha assay. An excerpt:
An AlphaScreen assay was established with GST-HRAS^G12V-GTP bound to GST-beads and HIS-tagged scFv RASdm bound to nickel-beads. The Alpha assay comprised interaction of anti-RAS and HRAS proteins and signal from the acceptor beads generated after excitation of the donor nickel-beads (depicted in Supplementary Fig. 3A). […] The interactions were optimized for protein concentrations linked to the donor and acceptor beads (Supplementary Fig. 3C,D). The interaction of HRAS^G12V-GTP with the dematured anti-RAS scFv was robust (Supplementary Fig. 3D) yielding Z factors of 0.74–0.85 being considered suitable for high throughput screen. […]
The AlphaScreen assay (Perkin Elmer) was performed in a 8 μl final volume in 1536-well white microtiter plates (Greiner). […] Exposure of the reaction to direct light was avoided and the emission of light from the acceptor beads was measured in the EnVision plate reader (Perkin Elmer) and analyzed using the EnVision manager software. […]
Panel A: AlphaLISA glutathione (GSH) acceptor beads were used to capture GST-HRAS loaded with GTPγS (Ag). […] Following incubation, nickel (Ni) chelate donor AlphaLISA beads were added and the chemiluminescence signal detected on an PE Envision plate reader. […]
In general terms: Alpha assays give light when donor and acceptor beads are brought close together.

The target in assay [2] is T2, non-mutated anti-RAS scFv / HRAS^G12V interaction (Homo sapiens, UniProt P01112, G12V).
T2 construct: made in house; host or cells: E. coli C41(DE3)
The assay is described as follows: Alpha assay of non-mutated anti-RAS scFv with HRAS^G12V (identical protocol, unpublished data). The assay is classed as biochemical. The source says: We have used the RAS protein as a target for this method as this was previously regarded as undruggable[9]–[11]. We provide further evidence of RAS druggability and that antibody binding sites can be employed to select small molecules for drug discovery as starting chemical matter for medicinal chemistry drug development campaigns. Compound A (Fig. 3A) is a heterocycle that would require crystal soaking to facilitate structure-based drug design to place this on a formal drug development programme. […] Further, the low Kd in SPR (Fig. 4), lack of inhibitory effect in Alpha controls (Fig. 3) argue against chemical reactivity as the reason for the Alpha assay inhibition. […] The low binding strength of these initial library hits, in turn resulting from the small size of the chemical library used, would preclude meaningful cell-assays at this stage.

In the next assay the target is KRAS^G12V-GPPNHP (Homo sapiens, UniProt P01116, G12V). The assay is described as follows: SPR of compound on biotinylated RAS isoform (streptavidin chip). The assay is classed as binding.
A further assay addresses HRAS-GPPNHP (Homo sapiens, UniProt P01112). Described as above. Type of assay: binding.
The next assay concerns the target NRAS-GPPNHP (Homo sapiens, UniProt P01111). Described as above. Type of assay: binding.
The next assay concerns dopamine D1 receptor. Conditions: cited from earlier work.
Assay [3] relates to KRAS, HRAS and NRAS-GTP proteins. The assay is described as follows: SPR over the three RAS isoforms (average / overall).
Procedure: Accordingly, we used SPR to determine direct RAS-binding and because the anti-RAS intracellular antibody interacts with the three isoforms of activated RAS[3], we assessed if the compounds also show a pan-RAS binding.
The protein extracts were loaded with GPPNHP (a non-hydrolysable GTP analogue) as described[19] and biotinylated by incubation with BirA overnight at 4 °C. […] SPR experiments were performed using BIAcore T100 (GE Healthcare). […] The chip was prepared with 3 × 30 s injections of 1 M NaCl/50 mM NaOH at 10 µL/min flow rate, before biotinylated RAS proteins were injected at 25 µg/mL with 10 µL/min flow rate until 4000–5000 RU protein was captured.

Structures are written as SMILES.

Sequence of NRAS-GPPNHP (P01111 1-166): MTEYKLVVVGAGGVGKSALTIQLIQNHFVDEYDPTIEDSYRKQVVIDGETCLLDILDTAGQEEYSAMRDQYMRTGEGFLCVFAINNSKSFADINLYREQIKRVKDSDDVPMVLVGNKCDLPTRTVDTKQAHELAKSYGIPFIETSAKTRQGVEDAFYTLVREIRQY
Sequence of HRAS-GPPNHP (P01112 1-166): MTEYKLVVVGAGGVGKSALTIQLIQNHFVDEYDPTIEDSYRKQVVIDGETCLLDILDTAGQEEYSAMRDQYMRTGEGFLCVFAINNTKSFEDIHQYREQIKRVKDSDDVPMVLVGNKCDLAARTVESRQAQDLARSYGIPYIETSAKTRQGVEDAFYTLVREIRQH
T1 sequence (P01112 whole entry G12V): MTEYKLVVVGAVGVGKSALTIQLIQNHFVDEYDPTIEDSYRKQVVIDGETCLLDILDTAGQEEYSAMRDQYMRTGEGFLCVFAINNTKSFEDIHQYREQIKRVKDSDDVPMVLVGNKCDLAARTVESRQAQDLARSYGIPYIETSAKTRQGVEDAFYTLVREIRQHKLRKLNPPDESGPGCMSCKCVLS
T2 sequence (P01112 whole entry G12V): as above

As a reminder, the IC50 is the point on the concentration scale where inhibition reaches its midpoint. Lower therefore signals greater potency in that assay. With `CCCn1c(=O)c2[nH]c(C3CCCC3)nc2n(CCCOC(=O)c2ccc(S(=O)(=O)F)cc2)c1=O` [Compound A, 8-Cyclopentyl-3-(3-((4-(fluorosulfonyl)benzoyl)oxy)propyl)-1-propylxanthine], the IC50 in assay [1] came to 2 µM. In addition, in assay [2], the “inhibition of interaction between non-mutated anti-RAS scFv and HRAS^G12V” value was “no inhibition”.
Broadly, the Kd is the constant that tells how readily two partners part at equilibrium. On to `CN1Cc2ccccc2C2c3cccc4[nH]cc(c34)CC21` (stereo not drawn) [compound B, 4,6,6a,7,8,12b-hexahydro-7-methylindolo(4,3-ab)-phenanthridine], for which the IC50 in assay [1] came out at 6 µM. Moreover, the results for the Rmax at KRAS^G12V-GPPNHP (Figure 4D), at HRAS-GPPNHP (Figure 4E) and at NRAS-GPPNHP (Figure 4F) were 6.7 RU, 3.5 RU and 6.8 RU, respectively. The Kd on KRAS^G12V-GPPNHP (KRAS) is 47 µM; on HRAS-GPPNHP (HRAS), 30 µM; on NRAS-GPPNHP (NRAS) it was 35 µM; in assay [3] (read-out: average Kd, average over KRAS, HRAS and NRAS), 37 µM. The “dopamine D1 receptor activity” value in the assay with dopamine D1 receptor was “weak dopamine D1 receptor agonist”. In addition, the “response in SPR analysis” value in assay [3] (KRAS, HRAS and NRAS proteins) is reported as “low response”.

The values are drawn from paper PMC7814043, “Pan RAS-binding compounds selected from a chemical library by inhibiting interaction between RAS and a reduced affinity intracellular antibody” (Scientific Reports, 2021).
